For 31 compounds, IC50 results are on record in ChEMBL document CHEMBL1149081, “Identification and structure-activity relationships of ortho-biphenyl carboxamides as potent Smoothened antagonists inhibiting the Hedgehog signaling pathway” (Bioorg Med Chem Lett, 2009).

Assay [1] deals with T1, Microsomal triglyceride transfer protein large subunit (Homo sapiens, UniProt P55157).
T1 sequence (P55157 whole entry): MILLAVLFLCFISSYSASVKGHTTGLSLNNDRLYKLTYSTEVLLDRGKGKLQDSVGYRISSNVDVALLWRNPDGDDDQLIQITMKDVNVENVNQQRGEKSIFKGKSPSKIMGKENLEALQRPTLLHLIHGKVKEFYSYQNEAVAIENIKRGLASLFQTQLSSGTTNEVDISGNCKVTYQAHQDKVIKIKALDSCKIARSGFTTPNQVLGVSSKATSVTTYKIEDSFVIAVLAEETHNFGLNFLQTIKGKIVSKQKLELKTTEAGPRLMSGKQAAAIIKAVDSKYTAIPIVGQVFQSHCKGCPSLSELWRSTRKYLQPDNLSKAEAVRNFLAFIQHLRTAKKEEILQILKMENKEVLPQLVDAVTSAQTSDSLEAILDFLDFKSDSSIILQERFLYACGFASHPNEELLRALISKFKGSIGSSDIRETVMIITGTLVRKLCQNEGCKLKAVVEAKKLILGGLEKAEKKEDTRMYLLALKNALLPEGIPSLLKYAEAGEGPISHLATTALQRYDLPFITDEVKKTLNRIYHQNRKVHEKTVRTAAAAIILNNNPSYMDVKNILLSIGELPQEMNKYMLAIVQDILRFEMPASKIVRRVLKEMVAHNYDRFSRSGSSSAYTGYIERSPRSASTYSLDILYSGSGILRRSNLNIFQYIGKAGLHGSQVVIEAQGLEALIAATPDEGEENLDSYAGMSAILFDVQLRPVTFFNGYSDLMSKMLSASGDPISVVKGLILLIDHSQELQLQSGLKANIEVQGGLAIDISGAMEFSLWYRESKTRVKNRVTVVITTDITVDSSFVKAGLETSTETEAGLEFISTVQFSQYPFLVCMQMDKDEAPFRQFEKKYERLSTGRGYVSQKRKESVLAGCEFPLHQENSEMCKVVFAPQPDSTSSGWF
The assay can be described thus: Inhibition of MTP in human HepG2 cells assessed as apolipoprotein B production by ELISA. It counts as cell-based. For orientation: In an ELISA, binding on a coated surface is turned into a signal by an enzyme label.

For assay [2], the target named is Protein smoothened (Homo sapiens, UniProt Q99835). The assay can be described thus: Antagonist activity at human Smo receptor expressed in CHO cells by [3H]Hh-Ag binding assay. It counts as cell-based.
Sequence of Protein smoothened (Homo sapiens, UniProt Q99835) (Q99835 whole entry): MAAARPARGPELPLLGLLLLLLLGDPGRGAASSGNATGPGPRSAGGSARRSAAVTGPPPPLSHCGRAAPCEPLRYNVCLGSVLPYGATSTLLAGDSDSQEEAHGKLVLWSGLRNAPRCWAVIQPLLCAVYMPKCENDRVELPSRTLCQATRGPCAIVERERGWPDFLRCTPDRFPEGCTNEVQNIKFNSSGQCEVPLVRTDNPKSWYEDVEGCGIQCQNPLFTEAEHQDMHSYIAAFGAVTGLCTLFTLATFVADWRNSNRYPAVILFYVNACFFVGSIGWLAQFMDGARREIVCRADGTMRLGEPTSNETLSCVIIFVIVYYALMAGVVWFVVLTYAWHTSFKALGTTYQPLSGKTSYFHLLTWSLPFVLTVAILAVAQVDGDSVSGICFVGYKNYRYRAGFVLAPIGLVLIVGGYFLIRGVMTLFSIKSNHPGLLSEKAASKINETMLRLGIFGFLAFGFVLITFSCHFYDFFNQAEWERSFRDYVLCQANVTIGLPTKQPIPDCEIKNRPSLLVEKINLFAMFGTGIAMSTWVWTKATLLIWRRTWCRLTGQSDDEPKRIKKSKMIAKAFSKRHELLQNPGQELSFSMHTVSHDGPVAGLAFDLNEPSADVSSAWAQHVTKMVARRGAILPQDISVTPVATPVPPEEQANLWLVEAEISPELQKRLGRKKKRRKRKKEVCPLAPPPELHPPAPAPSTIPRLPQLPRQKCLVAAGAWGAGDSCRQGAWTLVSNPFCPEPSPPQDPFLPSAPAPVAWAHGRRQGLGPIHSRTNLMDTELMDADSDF
Assay [3] addresses Protein smoothened (Mus musculus, UniProt P56726). The assay can be described thus: Antagonist activity at mouse Smo receptor expressed in CHO cells by [3H]Hh-Ag binding assay. Format: cell-based.
The nature of assay [4]: Inhibition of Hedgehog signaling pathway in mouse TM3 cells bearing pTA-8xGli-Luc reporter construct assessed as transcriptional modulation of Gli after 48 hrs by luciferase assay. Conditions: TM3, 48 h.

Sequence of Protein smoothened (Mus musculus, UniProt P56726) (P56726 whole entry): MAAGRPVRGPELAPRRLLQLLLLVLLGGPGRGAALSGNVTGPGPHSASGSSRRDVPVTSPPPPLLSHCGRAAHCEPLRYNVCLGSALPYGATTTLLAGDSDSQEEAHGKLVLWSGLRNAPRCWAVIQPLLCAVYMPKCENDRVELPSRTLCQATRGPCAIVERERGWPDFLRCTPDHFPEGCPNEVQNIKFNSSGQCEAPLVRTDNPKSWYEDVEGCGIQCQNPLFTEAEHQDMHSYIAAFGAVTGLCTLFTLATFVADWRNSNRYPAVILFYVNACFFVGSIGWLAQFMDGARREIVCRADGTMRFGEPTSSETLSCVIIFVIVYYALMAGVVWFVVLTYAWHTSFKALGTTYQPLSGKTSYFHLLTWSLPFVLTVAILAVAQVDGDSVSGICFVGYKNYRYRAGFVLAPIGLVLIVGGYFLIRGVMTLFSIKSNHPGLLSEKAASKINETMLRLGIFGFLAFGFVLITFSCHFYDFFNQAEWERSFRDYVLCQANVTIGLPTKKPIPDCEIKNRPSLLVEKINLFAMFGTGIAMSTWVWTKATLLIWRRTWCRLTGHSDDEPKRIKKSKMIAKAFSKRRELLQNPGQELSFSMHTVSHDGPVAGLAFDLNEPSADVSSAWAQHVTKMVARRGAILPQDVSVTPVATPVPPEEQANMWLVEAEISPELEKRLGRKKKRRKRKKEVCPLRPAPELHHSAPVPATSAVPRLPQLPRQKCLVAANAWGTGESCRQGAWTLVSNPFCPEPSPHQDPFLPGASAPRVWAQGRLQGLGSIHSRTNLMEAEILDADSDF

As to `COC(=O)N[C@H]1Cc2ccc(NC(=O)c3cccc(C)c3-c3ccc(C(F)(F)F)cc3)cc2C1`, the IC50 (in general, the midpoint of a concentration-inhibition curve) in assay [1] is 4.3 nM; in assay [2] it was 7520 nM; in assay [3] it was 5090 nM; in assay [4], 2150 nM.

For the compound `Cc1cccc(C(=O)Nc2ccc3c(c2)C[C@@H](NCc2ccccn2)C3)c1-c1ccc(C(F)(F)F)cc1`, the half-inhibitory concentration (IC50) is 2350 nM in assay [1], 120 nM in assay [2], 57 nM in assay [3] and 100 nM in assay [4].

As to `Cc1cccc(C(=O)Nc2ccc3c(c2)C[C@H](NCc2ccccn2)C3)c1-c1ccc(C(F)(F)F)cc1`, the figures for the IC50 in assay [1], in assay [3] and in assay [4] were 3.5 nM, 8770 nM and 4890 nM, respectively.

Consider `COC(=O)N[C@@H]1Cc2ccc(NC(=O)c3cccc(C)c3-c3ccc(C(F)(F)F)cc3)cc2C1`, for which the IC50 amounted to 0.9 nM in assay [1], 3420 nM in assay [2], 2480 nM in assay [3] and 1200 nM in assay [4].

Regarding `Cc1cccc(C(=O)Nc2ccc3c(c2)C[C@@H](NC(c2ccccc2)C(F)(F)F)C3)c1-c1ccc(C(F)(F)F)cc1` (some centres not stated), the values for the IC50 in assay [2], in assay [3] and in assay [4] were 55 nM, 57 nM and 33 nM, respectively.

Regarding `Cc1cccc(C(=O)Nc2ccc3c(c2)C[C@@H](NCc2cnc4ccccc4c2)C3)c1-c1ccc(C(F)(F)F)cc1`, the IC50 was 210 nM in assay [2], 350 nM in assay [3] and 1290 nM in assay [4].

In the case of `Cc1ccc(CN[C@H]2Cc3ccc(NC(=O)c4cccc(C)c4-c4ccc(C(F)(F)F)cc4)cc3C2)o1`, the IC50 in assay [2] amounted to 10 nM; in assay [3], 6 nM; in assay [4], 8 nM.

With `Cc1cccc(C(=O)Nc2ccc3c(c2)C[C@@H](NCC2CCOC2)C3)c1-c1ccc(C(F)(F)F)cc1` (some centres not stated), the IC50 in assay [3] is 16700 nM; in assay [4], 3700 nM.

Regarding `COc1ccc(CN[C@H]2Cc3ccc(NC(=O)c4cccc(C)c4-c4ccc(C(F)(F)F)cc4)cc3C2)cc1`, the results for the IC50 in assay [2], in assay [3] and in assay [4] were 120 nM, 93 nM and 360 nM, respectively.

For the compound `Cc1cccc(C(=O)Nc2ccc3c(c2)C[C@@H](NCc2ccccc2)C3)c1-c1ccc(C(F)(F)F)cc1`, the values for the IC50 in assay [2], in assay [3] and in assay [4] were 14 nM, 8 nM and 21 nM, respectively.

Turning to `Cc1cccc(C(=O)Nc2ccc3c(c2)C[C@@H](NCc2ccncc2)C3)c1-c1ccc(C(F)(F)F)cc1`, the figures for the half-inhibitory concentration (IC50) in assay [2], in assay [3] and in assay [4] were 240 nM, 190 nM and 150 nM, respectively.

As for `Cc1cccc(C(=O)Nc2ccc3c(c2)C[C@@H](NC(C)c2ccccc2)C3)c1-c1ccc(C(F)(F)F)cc1` (some centres not stated), the IC50 is 32 nM in assay [2], 29 nM in assay [3] and 88 nM in assay [4].

Consider `Cc1cccc(C(=O)Nc2ccc3c(c2)C[C@@H](Nc2ccccc2)C3)c1-c1ccc(C(F)(F)F)cc1`, for which the IC50 worked out at 130 nM in assay [2], 82 nM in assay [3] and 41 nM in assay [4].

On to `Cc1cccc(C(=O)Nc2ccc3c(c2)C[C@@H](NCc2cccs2)C3)c1-c1ccc(C(F)(F)F)cc1`, for which the IC50 in assay [2] worked out at 7 nM; in assay [3] it was 9 nM; in assay [4], 10 nM.

For `Cc1csc(CN[C@H]2Cc3ccc(NC(=O)c4cccc(C)c4-c4ccc(C(F)(F)F)cc4)cc3C2)n1`, the IC50 was 7 nM in assay [2], 4 nM in assay [3] and 17 nM in assay [4].

With `Cc1cccc(C(=O)Nc2ccc3c(c2)C[C@@H](NCc2scnc2C)C3)c1-c1ccc(C(F)(F)F)cc1`, the IC50 in assay [2] was 170 nM; in assay [3], 120 nM; in assay [4], 160 nM.

In the case of `Cc1cccc(C(=O)Nc2ccc3c(c2)C[C@H](NCc2nccs2)C3)c1-c1ccc(C(F)(F)F)cc1`, the figures for the IC50 in assay [2], in assay [3] and in assay [4] were 770 nM, 1190 nM and 4270 nM, respectively.

In the case of `Cc1cccc(C(=O)Nc2ccc3c(c2)C[C@@H](NCc2nccs2)C3)c1-c1ccc(C(F)(F)F)cc1`, the IC50 in assay [2] stood at 30 nM; in assay [3], 10 nM; in assay [4], 25 nM.

For the compound `CC(=O)Nc1ccc(CN[C@H]2Cc3ccc(NC(=O)c4cccc(C)c4-c4ccc(C(F)(F)F)cc4)cc3C2)cc1`, the IC50 came to 340 nM in assay [2], 360 nM in assay [3] and 450 nM in assay [4].

`Cc1cccc(C(=O)Nc2ccc3c(c2)C[C@@H](NCc2ccco2)C3)c1-c1ccc(C(F)(F)F)cc1`: the IC50 in assay [3] stood at 14 nM; in assay [4], 23 nM.

For `O=C(Nc1ccc2c(c1)CC(NCc1ccccn1)C2)c1ccccc1-c1ccc(Cl)cc1` (racemic), the IC50 was determined as 2710 nM in assay [3] and 4950 nM in assay [4].

Regarding `COC(=O)NC1Cc2ccc(NC(=O)c3cccc(C)c3-c3ccc(C(F)(F)F)cc3)cc2C1` (racemic), the IC50 was determined as 2700 nM in assay [2], 2960 nM in assay [3] and 1330 nM in assay [4].

Regarding `Cc1cccc(C(=O)Nc2ccc3c(c2)CC(NC(=O)c2ccccc2)C3)c1-c1ccc(C(F)(F)F)cc1` (racemic), the IC50 in assay [4] is 600 nM.

Turning to `O=C(Nc1ccc2c(c1)CC(NCc1ccccn1)C2)c1ccccc1-c1ccc(C(F)(F)F)cc1` (racemic), the IC50 in assay [2] amounted to 790 nM; in assay [3], 490 nM; in assay [4], 200 nM.

In the case of `Cc1cccc(C(=O)Nc2ccc3c(c2)CC(NCc2ccccc2)C3)c1-c1ccc(C(F)(F)F)cc1` (racemic), in assay [4], the IC50 came out at 93 nM.

With `Cc1cccc(C(=O)Nc2ccc3c(c2)CC(NCc2ccccn2)C3)c1-c1ccc(C(F)(F)F)cc1` (racemic), the IC50 in assay [3] was 110 nM; in assay [4] it was 100 nM.

As to `Cc1ccc(-c2ccc(C(F)(F)F)cc2)c(C(=O)Nc2ccc3c(c2)CC(NCc2ccccn2)C3)c1` (racemic), the IC50 amounted to 8680 nM in assay [3] and 6800 nM in assay [4].

For `Cc1cccc(C(=O)Nc2ccc3c(c2)CC(NS(=O)(=O)c2ccccc2)C3)c1-c1ccc(C(F)(F)F)cc1` (racemic), the IC50 in assay [4] is 1250 nM.

Take `O=C(Nc1ccc2c(c1)CC(NCc1ccccn1)C2)c1ccccc1-c1ccccc1` (racemic): the values for the IC50 in assay [2], in assay [3] and in assay [4] were 1150 nM, 1420 nM and 1000 nM, respectively.

Consider `COc1ccc(-c2ccc(C(F)(F)F)cc2)c(C(=O)Nc2ccc3c(c2)CC(NCc2ccccn2)C3)c1` (racemic), for which the half-inhibitory concentration (IC50) in assay [3] and in assay [4] was > 5000 nM each time.

On to `CC1=C2C[C@H]3[C@@H](CC=C4C[C@@H](O)CC[C@@]43C)[C@@H]2CC[C@]12O[C@@H]1C[C@H](C)CN[C@H]1[C@H]2C` [CYCLOPAMINE], for which, in assay [4], the IC50 was determined as 46 nM.
